From ChEMBL document CHEMBL1240349, “Influence of tigecycline on expression of virulence factors in biofilm-associated cells of methicillin-resistant Staphylococcus aureus” (2010)

What was measured:
Type in all cases: functional
[1] = test system: Staphylococcus aureus; test: Increase in rpmI gene expression in biofilm-associated cells of epidemic methicillin-resistant Staphylococcus aureus isolate 16 at 4 times MIC incubated for 1 hr by whole genome microarray relative to untreated control
[2] = test system: Staphylococcus aureus; test: Increase in clfB gene expression in biofilm-associated cells of epidemic methicillin-resistant Staphylococcus aureus isolate 16 at 4 times MIC incubated for 1 hr by whole genome microarray relative to untreated control
[3] = test system: Staphylococcus aureus; test: Increase in pbp2 gene expression in biofilm-associated cells of epidemic methicillin-resistant Staphylococcus aureus isolate 16 at 4 times MIC incubated for 1 hr by whole genome microarray relative to untreated control
[4] = test system: Staphylococcus aureus; test: Increase in rpsE gene expression in biofilm-associated cells of epidemic methicillin-resistant Staphylococcus aureus isolate 16 at 4 times MIC incubated for 1 hr by whole genome microarray relative to untreated control
[5] = test system: Staphylococcus aureus; test: Decrease in mnhG expression in biofilm-associated cells of epidemic methicillin-resistant Staphylococcus aureus isolate 15 at 4 times MIC incubated for 1 hr by RT-PCR relative to untreated control
[6] = test system: Staphylococcus aureus; test: Increase in mnhG gene expression in biofilm-associated cells of epidemic methicillin-resistant Staphylococcus aureus isolate 16 at 4 times MIC incubated for 1 hr by RT-PCR relative to untreated control
[7] = test system: Staphylococcus aureus; test: Increase in rho gene expression in biofilm-associated cells of epidemic methicillin-resistant Staphylococcus aureus isolate 16 at 4 times MIC incubated for 1 hr by whole genome microarray relative to untreated control
[8] = test system: Staphylococcus aureus; test: Increase in tcaR gene expression in biofilm-associated cells of epidemic methicillin-resistant Staphylococcus aureus isolate 16 at 4 times MIC incubated for 1 hr by whole genome microarray relative to untreated control
[9] = test system: Staphylococcus aureus; test: Decrease in sodA gene expression in biofilm-associated cells of epidemic methicillin-resistant Staphylococcus aureus isolate 16 at 4 times MIC incubated for 1 hr by whole genome microarray relative to untreated control
[10] = test system: Staphylococcus aureus; test: Increase in sarA gene expression in biofilm-associated cells of epidemic methicillin-resistant Staphylococcus aureus isolate 16 at 4 times MIC incubated for 1 hr by whole genome microarray relative to untreated control
[11] = test system: Staphylococcus aureus; test: Increase in fnbB gene expression in biofilm-associated cells of epidemic methicillin-resistant Staphylococcus aureus isolate 16 at 4 times MIC incubated for 1 hr by whole genome microarray relative to untreated control
[12] = test system: Staphylococcus aureus; test: Decrease in mnhG expression in biofilm-associated cells of epidemic methicillin-resistant Staphylococcus aureus isolate 16-2 at 4 times MIC incubated for 1 hr by RT-PCR relative to untreated control
[13] = test system: Staphylococcus aureus; test: Decrease in tst gene expression in biofilm-associated cells of epidemic methicillin-resistant Staphylococcus aureus isolate 16 at 4 times MIC incubated for 1 hr by RT-PCR relative to untreated control
[14] = test system: Staphylococcus aureus; test: Decrease in sdrD gene expression in biofilm-associated cells of epidemic methicillin-resistant Staphylococcus aureus isolate 16 at 4 times MIC incubated for 1 hr by whole genome microarray relative to untreated control
[15] = test system: Staphylococcus aureus; test: Decrease in cap8H gene expression in biofilm-associated cells of epidemic methicillin-resistant Staphylococcus aureus isolate 16 at 4 times MIC incubated for 1 hr by whole genome microarray relative to untreated control
[16] = test system: Staphylococcus aureus; test: Increase in ssaA expression in biofilm-associated cells of epidemic methicillin-resistant Staphylococcus aureus isolate 16-2 at 4 times MIC incubated for 1 hr by RT-PCR relative to untreated control
[17] = test system: Staphylococcus aureus; test: Increase in cna expression in biofilm-associated cells of epidemic methicillin-resistant Staphylococcus aureus isolate 16-1 at 4 times MIC incubated for 1 hr by RT-PCR relative to untreated control
[18] = test system: Staphylococcus aureus; test: Increase in dnaG gene expression in biofilm-associated cells of epidemic methicillin-resistant Staphylococcus aureus isolate 16 at 4 times MIC incubated for 1 hr by whole genome microarray relative to untreated control
[19] = test system: Staphylococcus aureus; test: Decrease in icaC gene expression in biofilm-associated cells of epidemic methicillin-resistant Staphylococcus aureus isolate 16 at 4 times MIC incubated for 1 hr by RT-PCR relative to untreated control
[20] = test system: Staphylococcus aureus; test: Increase in rplC gene expression in biofilm-associated cells of epidemic methicillin-resistant Staphylococcus aureus isolate 16 at 4 times MIC incubated for 1 hr by whole genome microarray relative to untreated control
[21] = test system: Staphylococcus aureus; test: Increase in mnhE gene expression in biofilm-associated cells of epidemic methicillin-resistant Staphylococcus aureus isolate 16 at 4 times MIC incubated for 1 hr by whole genome microarray relative to untreated control
[22] = test system: Staphylococcus aureus; test: Decrease in asp23 gene expression in biofilm-associated cells of epidemic methicillin-resistant Staphylococcus aureus isolate 16 at 4 times MIC incubated for 1 hr by whole genome microarray relative to untreated control
[23] = test system: Staphylococcus aureus; test: Increase in cspB gene expression in biofilm-associated cells of epidemic methicillin-resistant Staphylococcus aureus isolate 16 at 4 times MIC incubated for 1 hr by whole genome microarray relative to untreated control
[24] = test system: Staphylococcus aureus; test: Increase in infA gene expression in biofilm-associated cells of epidemic methicillin-resistant Staphylococcus aureus isolate 16 at 4 times MIC incubated for 1 hr by whole genome microarray relative to untreated control
[25] = test system: Staphylococcus aureus; test: Decrease in capB gene expression in biofilm-associated cells of epidemic methicillin-resistant Staphylococcus aureus isolate 16 at 4 times MIC incubated for 1 hr by whole genome microarray relative to untreated control
[26] = test system: Staphylococcus aureus; test: Increase in rpsH gene expression in biofilm-associated cells of epidemic methicillin-resistant Staphylococcus aureus isolate 16 at 4 times MIC incubated for 1 hr by whole genome microarray relative to untreated control
[27] = test system: Staphylococcus aureus; test: Increase in isaA expression in biofilm-associated cells of epidemic methicillin-resistant Staphylococcus aureus isolate 16-2 at 4 times MIC incubated for 1 hr by RT-PCR relative to untreated control
[28] = test system: Staphylococcus aureus; test: Increase in clfB gene expression in biofilm-associated cells of epidemic methicillin-resistant Staphylococcus aureus isolate 16 at 4 times MIC incubated for 1 hr by RT-PCR relative to untreated control
[29] = test system: Staphylococcus aureus; test: Increase in ssaA expression in biofilm-associated cells of epidemic methicillin-resistant Staphylococcus aureus isolate 15 at 4 times MIC incubated for 1 hr by RT-PCR relative to untreated control
[30] = test system: Staphylococcus aureus; test: Decrease in clpB gene expression in biofilm-associated cells of epidemic methicillin-resistant Staphylococcus aureus isolate 16 at 4 times MIC incubated for 1 hr by whole genome microarray relative to untreated control
[31] = test system: Staphylococcus aureus; test: Increase in saeR gene expression in biofilm-associated cells of epidemic methicillin-resistant Staphylococcus aureus isolate 16 at 4 times MIC incubated for 1 hr by whole genome microarray relative to untreated control
[32] = test system: Staphylococcus aureus; test: Decrease in capG expression in biofilm-associated cells of epidemic methicillin-resistant Staphylococcus aureus isolate 16-2 at 4 times MIC incubated for 1 hr by RT-PCR relative to untreated control
[33] = test system: Staphylococcus aureus; test: Increase in ssaA gene expression in biofilm-associated cells of epidemic methicillin-resistant Staphylococcus aureus isolate 16 at 4 times MIC incubated for 1 hr by RT-PCR relative to untreated control
[34] = test system: Staphylococcus aureus; test: Increase in infB gene expression in biofilm-associated cells of epidemic methicillin-resistant Staphylococcus aureus isolate 16 at 4 times MIC incubated for 1 hr by whole genome microarray relative to untreated control

How did the “fold change (FC)” value [1] turn out when CN(C)c1cc(NC(=O)CNC(C)(C)C)c(O)c2c1C[C@H]1C[C@H]3[C@H](N(C)C)C(O)=C(C(N)=O)C(=O)[C@@]3(O)C(O)=C1C2=O [TIGECYCLINE] was run?
Its value is 10.51.

And the “fold change (FC)” value [2]?
Its value is 4.

And the “fold change (FC)” value [3]?
Its value is 3.91.

What about the “fold change (FC)” value [4] of the same compound?
Its value is 11.01.

What about the “fold change (FC)” value [5] of the same compound?
The value was 1.64.

And the “fold change (FC)” value [6]?
The value was 5.16.

And the “fold change (FC)” value [7]?
The value was 2.15.

And the “fold change (FC)” value [8]?
The value was 2.79.

What about the “fold change (FC)” value [9] of the same compound?
The value was 2.59.

And the “fold change (FC)” value [10]?
The value was 2.37.

And the “fold change (FC)” value [11]?
Its value is 5.34.

What about the “fold change (FC)” value [12] of the same compound?
Its value is 6.99.

And the “fold change (FC)” value [13]?
Its value is 1.51.

And the “fold change (FC)” value [14]?
The value was 2.46.

And the “fold change (FC)” value [15]?
The value was 2.18.

What about the “fold change (FC)” value [16] of the same compound?
Its value is 1.72.

And the “fold change (FC)” value [17]?
Its value is 3.42.

What about the “fold change (FC)” value [18] of the same compound?
Its value is 2.19.

And the “fold change (FC)” value [19]?
The value was 2.23.

What about the “fold change (FC)” value [20] of the same compound?
Its value is 12.06.

And the “fold change (FC)” value [21]?
The value was 3.15.

And the “fold change (FC)” value [22]?
The value was 8.61.

And the “fold change (FC)” value [23]?
Its value is 5.59.

And the “fold change (FC)” value [24]?
The value was 4.77.

What about the “fold change (FC)” value [25] of the same compound?
The value was 2.08.

What about the “fold change (FC)” value [26] of the same compound?
Its value is 14.86.

And the “fold change (FC)” value [27]?
Its value is 3.7.

And the “fold change (FC)” value [28]?
Its value is 7.5.

What about the “fold change (FC)” value [29] of the same compound?
Its value is 1.17.

What about the “fold change (FC)” value [30] of the same compound?
Its value is 2.49.

What about the “fold change (FC)” value [31] of the same compound?
The value was 2.02.

What about the “fold change (FC)” value [32] of the same compound?
Its value is 1.96.

And the “fold change (FC)” value [33]?
The value was 2.04.

And the “fold change (FC)” value [34]?
The value was 2.35.
